In PubChem BioAssay (NCI):
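1) Cells in 96-well plates. 2) Compound, 48 h, 5 concentrations. 3) Linear interpolation between surrounding doses. 4) Unreached endpoint = highest concentration. The concentration for full growth arrest is given as TGI.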

Experiments:
Assay in all cases: growth of human tumour cells (NCI), 48 h
COLO 205 colon = tested on: COLO 205 colon
SK-OV-3 ovarian = tested on: SK-OV-3 ovarian
LOX IMVI melanoma = tested on: LOX IMVI melanoma
OVCAR-8 ovarian = tested on: OVCAR-8 ovarian
RXF 393 renal = tested on: RXF 393 renal
SW-620 colon = tested on: SW-620 colon
U251 CNS = tested on: U251 CNS
CAKI-1 renal = tested on: CAKI-1 renal
SNB-75 CNS = tested on: SNB-75 CNS
TK-10 renal = tested on: TK-10 renal

Structure (SMILES) | TGI (COLO 205 colon) | TGI (SK-OV-3 ovarian) | TGI (LOX IMVI melanoma) | TGI (OVCAR-8 ovarian) | TGI (RXF 393 renal) | TGI (SW-620 colon) | TGI (U251 CNS) | TGI (CAKI-1 renal) | TGI (SNB-75 CNS) | TGI (TK-10 renal)
O=C(c1ccccc1)n1[nH]c(=O)n(-c2ccc(Cl)cc2)c1=O | > 100 µM | > 100 µM | > 100 µM | > 100 µM | > 100 µM | > 100 µM | > 100 µM | > 100 µM | > 100 µM | > 100 µM
Cc1nc2ccccc2cc1C[N+]12CN3CN(CN(C3)C1)C2 | 28.8 µM | 98.9 µM | 32.8 µM | > 100 µM | 40.4 µM | > 100 µM | 28.2 µM | 59.8 µM | 35.6 µM | 63.4 µM
C=C1[C@H](OCC(C)C)[C@@H](OC(=O)C(C)CC)[C@@H](O)C(C)(C)/C=C/[C@H](C)C(=O)[C@@]2(O)C[C@H](C)[C@H](O)[C@@H]2[C@H]1OC(=O)C(C)CC (stereo not given in full) | > 9.67 µM | > 20 µM | > 13.3 µM | > 20 µM | > 20 µM | > 20 µM | > 20 µM | > 18.7 µM | > 18.7 µM | > 19.3 µM
Cc1nc(N)nc(N)c1N1CCN(Cc2ccccc2)CC1 | > 100 µM | > 100 µM | > 100 µM | > 100 µM | > 100 µM | > 100 µM | > 100 µM | > 100 µM | > 100 µM | > 100 µM
NC(CNc1ccc(O)cc1)C(=O)O (stereo not given) | > 100 µM | > 100 µM | > 100 µM | > 100 µM | > 100 µM | > 100 µM | > 100 µM | > 100 µM | > 100 µM | > 100 µM
O=C(CCC(=O)OCC1OC(O)(CC2OC(CO)C(O)C(O)C2O)C(O)C1O)OCc1ccccc1 (stereo not given) | > 100 µM | > 100 µM | > 100 µM | > 100 µM | > 100 µM | > 100 µM | > 100 µM | > 100 µM | > 100 µM | > 100 µM
CCOC(=O)/C=C(/C(=O)OCC)n1ccc(=O)[nH]c1=O | 3.99 µM | 32.9 µM | 22.3 µM | 27.4 µM | 13.8 µM | 3.99 µM | 27.3 µM | 2.3 µM | 29.2 µM | 10.5 µM
O=Cc1cc(O)c(O)c(/C=N/n2c3ccccc3c3ccccc32)c1 | 26.3 µM | 21.1 µM | > 100 µM | 18.7 µM | 23.5 µM | 44.7 µM | 45.5 µM | 36.6 µM | 9.76 µM | 82 µM
O=C1NC(=S)NC(=O)C1=Cc1ccc2ccccc2n1 | > 100 µM | > 100 µM | > 100 µM | > 100 µM | > 100 µM | > 100 µM | > 100 µM | > 100 µM | > 100 µM | > 100 µM
CCOC(=O)CCC(NC(=O)c1ccc(NCc2ccc3nc(-c4ccccc4)c(Cl)nc3c2)c2ccccc12)C(=O)OCC (stereo not given) | > 100 µM | > 100 µM | > 100 µM | > 100 µM | > 100 µM | > 100 µM | > 100 µM | > 100 µM | > 100 µM | > 100 µM
CSc1nc(=O)c(C#N)c(-c2ccccc2)n1C1OC(COC(C)=O)C(OC(C)=O)C(OC(C)=O)C1OC(C)=O (stereo not given) | > 100 µM | > 100 µM | > 100 µM | > 100 µM | > 100 µM | > 100 µM | > 100 µM | > 100 µM | > 100 µM | > 100 µM
Cc1ccnc2sc3ccccc3c(=O)c12 | > 100 µM | > 100 µM | > 100 µM | > 100 µM | > 100 µM | > 100 µM | > 100 µM | 61.5 µM | 63.2 µM | 90.6 µM
CCOC(=O)c1ccc(NC(NC(=O)CC)(C(F)(F)F)C(F)(F)F)cc1 | > 100 µM | > 100 µM | > 100 µM | > 100 µM | > 100 µM | > 100 µM | > 100 µM | > 100 µM | > 100 µM | > 100 µM
CC(C)(CN1CCCCC1)C(=O)/C=C/c1c(Cl)cccc1Cl | 3.05 µM | 8.47 µM | 2.68 µM | 9.21 µM | 2.39 µM | 2.29 µM | 2.8 µM | 2.78 µM | 2.38 µM | 1.77 µM
Nc1ccc(-c2nc3cc(F)ccc3s2)cc1 | > 100 µM | > 100 µM | > 100 µM | > 100 µM | > 100 µM | > 100 µM | > 80 µM | > 100 µM | 50.7 µM | > 93.1 µM
CCOC(=O)C1=CN(C(=O)c2ccccc2)CCC1Cc1ccccc1 (stereo not given) | 51.9 µM | > 100 µM | 34.4 µM | 88.4 µM | 61.8 µM | > 100 µM | 51.9 µM | > 100 µM | 70.3 µM | 75.3 µM
Cc1ccc(N(C(=O)CC(=O)N2N=C(c3ccccc3)C(N=Nc3ccc([N+](=O)[O-])cc3)C2=O)C(=O)c2ccc(Cl)cc2)cc1 (stereo not given) | 10.4 µM | 32.2 µM | 15.7 µM | 38.3 µM | 10.9 µM | > 59.6 µM | 23.7 µM | > 76.8 µM | 39.1 µM | > 51.4 µM
O=C1C(CN2CCCC2)CCCC1CN1CCCC1 (stereo not given) | 3.07 µM | 31.9 µM | 6.26 µM | 10.5 µM | 8.08 µM | 0.32 µM | 41.3 µM | 3.11 µM | 35.6 µM | 5.5 µM

Structure (SMILES) | TGI (COLO 205 colon) | TGI (SK-OV-3 ovarian) | TGI (LOX IMVI melanoma) | TGI (OVCAR-8 ovarian) | TGI (RXF 393 renal) | TGI (SW-620 colon) | TGI (U251 CNS) | TGI (CAKI-1 renal) | TGI (SNB-75 CNS) | TGI (TK-10 renal)
CC(C)(C)OC(=O)NCCNC(=O)CN(CC(=O)O)C1CCCCC1N(CC(=O)O)CC(=O)O (stereo not given) | > 100 µM | > 100 µM | > 100 µM | > 100 µM | > 100 µM | > 100 µM | > 100 µM | > 100 µM | > 100 µM | > 100 µM
O=C(NC(CO)CO)c1ccc2cc(C(=O)N3CC(CCl)c4ccc([N+](=O)[O-])cc43)[nH]c2c1 (stereo not given) | > 100 µM | > 100 µM | > 100 µM | > 100 µM | > 100 µM | > 100 µM | > 100 µM | > 100 µM | > 100 µM | > 100 µM
COC(=O)C(N)CCCC(N)C(=O)NC(C)C(=O)NC(CCC(=O)NCCCNc1ccc([N+](=O)[O-])c2[nH]c3ccccc3c(=O)c12)C(N)=O (stereo not given) | 15.2 µM | 26.7 µM | 13 µM | 13.9 µM | 25.1 µM | 14.7 µM | 18.4 µM | 19.8 µM | 21.6 µM | 23.2 µM
O=C(NNCc1ccccc1O)c1ccccc1O | > 100 µM | 68.6 µM | > 100 µM | > 100 µM | > 100 µM | > 100 µM | > 100 µM | > 100 µM | > 100 µM | > 100 µM
O=C(CC(=O)Nc1ccccc1Cl)NNC(Sc1ccccc1)c1cc(N=Nc2ccc(Br)cc2)ccc1O (stereo not given) | > 10 µM | > 10 µM | 3.15 µM | 2.39 µM | 5.82 µM | 2.77 µM | 8.26 µM | 7.19 µM | > 10 µM | 9.08 µM
c1csc(-c2nnc(C34CC5CC(CC(C5)C3)C4)o2)c1 | 31.2 µM | > 100 µM | 47.1 µM | 98.4 µM | 54.7 µM | > 100 µM | > 100 µM | > 100 µM | 75.8 µM | > 100 µM
CN1N(c2ccccc2)C(=O)C2=NC=C(C#N)C(=N)C21C (stereo not given) | > 100 µM | > 100 µM | > 100 µM | > 100 µM | > 100 µM | > 100 µM | > 100 µM | > 100 µM | > 100 µM | > 100 µM
O=C1OC(C(O)C(O)C(O)CO)C(O)C1O (stereo not given) | > 100 µM | > 100 µM | > 100 µM | > 100 µM | > 100 µM | > 100 µM | > 100 µM | > 100 µM | > 100 µM | > 100 µM
Cc1ccsc1/C=N/Nc1ccccn1 | > 100 µM | > 100 µM | > 100 µM | > 100 µM | > 100 µM | > 100 µM | > 100 µM | > 100 µM | > 100 µM | > 100 µM
CCOC(=O)/C=C1/Nc2cc(F)c(F)cc2NC1=O | > 100 µM | > 100 µM | > 100 µM | > 100 µM | > 100 µM | > 100 µM | > 100 µM | > 100 µM | > 100 µM | > 100 µM
CC(CN(C)C)C(=O)/C=C/c1ccc(Cl)c(Cl)c1 (stereo not given) | 2.58 µM | 17.5 µM | 2.99 µM | 2.85 µM | 40.8 µM | 8.42 µM | 2.51 µM | 4.42 µM | 51.1 µM | 4.63 µM
CCCC1C(C#N)(C#N)C(C#N)=C(N)C1(C)C(C)=O (stereo not given) | > 100 µM | > 100 µM | > 100 µM | > 100 µM | > 100 µM | > 100 µM | > 100 µM | 21.6 µM | 96.9 µM | > 100 µM
O=C1C=C(NCCc2cc(Br)c(O)c(Br)c2)C(=O)c2[nH]cnc21 | > 100 µM | > 100 µM | > 100 µM | > 100 µM | 98 µM | > 100 µM | > 100 µM | > 100 µM | 69.1 µM | > 100 µM
COc1cnnc2c(C)c(-c3ccccc3)nn12 | > 100 µM | > 100 µM | > 100 µM | > 100 µM | > 100 µM | > 100 µM | > 100 µM | > 100 µM | > 100 µM | > 100 µM
CC(C)C(/C=C/c1ccccc1)=N\NC(=S)NN | > 100 µM | > 100 µM | > 100 µM | > 100 µM | > 100 µM | > 100 µM | > 100 µM | > 100 µM | > 100 µM | > 100 µM
CN1CCN(c2c(O)c3c(c(O)c2Cl)C(=O)C=CC3=O)CC1 | 0.38 µM | 8.34 µM | 1.66 µM | 0.656 µM | 0.602 µM | 0.369 µM | 4.07 µM | 1.56 µM | 3.56 µM | 1.58 µM
Cc1nn(C(=O)c2ccc(Cl)cc2)c2c1C(c1ccco1)SC(N)=N2 (stereo not given) | > 10 µM | > 10 µM | > 10 µM | > 10 µM | > 10 µM | > 10 µM | > 10 µM | > 10 µM | > 10 µM | > 10 µM
